According to the NIST ThermoML archive (doi:10.1016/j.jct.2018.12.039):

Assay: xn = mol fraction of the nth substance listed
Conditions: 100 kPa, Liquid; for speed of sound: Frequency=2 MHz, Linear variable-path acoustic interferometer; for mass density: Vibrating tube method

Cc1cccc(O)c1 [3-methylphenol] + CCO
Conditions	mass density, 303.15 K [kg/m3]	mass density, 308.15 K [kg/m3]	mass density, 313.15 K [kg/m3]	mass density, 318.15 K [kg/m3]	speed of sound, 303.15 K [m/s]	speed of sound, 313.15 K [m/s]
x2 = 0	1025.71	1021.7	1017.69	1013.65	1466.1	1436.1
x2 = 0.14	1005.48	1001.45	997.42	993.36	1426.7	1398.2
x2 = 0.2637	985.23	981.17	977.1	972.97	1384.7	1355
x2 = 0.3738	964.94	960.82	956.72	952.53	1344.9	1313.8
x2 = 0.4724	944.63	940.47	936.35	932.08	1308.5	1276.5
x2 = 0.5612	924.32	920.08	915.95	911.64	1275.8	1243.4
x2 = 0.6417	903.96	899.68	895.51	891.18	1246.6	1214
x2 = 0.7149	883.56	879.25	875.06	870.68	1220.5	1188
x2 = 0.7817	863.15	858.83	854.61	850.21	1197.2	1164.7
x2 = 0.8431	842.67	838.32	834.07	829.62	1176.3	1143.9
x2 = 0.8995	822.2	817.81	813.53	809.06	1157.8	1125.3
x2 = 0.9517	801.66	797.22	792.9	788.34	1141.4	1108.7
